Reference: patent US20150305328A1, “METHODS OF SAFENING SUGAR CANE PLANTS WITH N-ACYLSULFAMOYLPHENYLUREAS” (SYNGENTA PARTICIPATIONS AG, priority 2012, published 2015)

System: sugar cane varieties SP803280 and RB835486
Experiment: Glasshouse safening test: visual phytotoxicity of pre-emergent herbicides on sugar cane grown from safener-soaked single-node stem sections
Format: in vivo
Protocol: In the following examples, two commercial and contemporary Brazilian sugar cane varieties were used in the experiential testing, SP803280 and RB835486. The sugar cane propagation material was prepared using single-node stem sections approximately 8 cm in length. The stem sections were treated by soaking for about 10 seconds in a solution containing Formula A=1-[4-(N-2-methoxybenzoylsulfamoyl)phenyl]-3-methylurea (15 ml of formulated product in 500 ml water; the formulated product contained 100 grams of Formula A per liter of formulated product). Four stem segments (replicates) were planted in and covered with 1 cm of the regular live loam soil used in glasshouse screening using standard planting troughs, putting each variety in a separate trough. Seeds of one of two appropriate weeds, Euphorbia heterophylla or Brachiaria decumbens were also planted in each trough in a clump to give a measure of relative weeds control alongside crop phytotoxicity. Plants were assessed for percentage visual phytotoxicity at 7 day intervals after application (DAA) up to 35 DAA. Three herbicides, all having different modes-of-action were applied the day after planting as pre-emergent herbicide. The herbicides applied were: clomazone (Gamit®) having a DOXP mode-of-action (inhibition of the 1-desoxy-D-xylulose 5-phosphate), sufentrazone (Boral®) having a PPO mode-of-action (inhibition of protoporphyrinogen oxidase), and bicyclopyrone having an HPPD mode-of-action (inhibition of the enzyme 4-hydoxyphenylpyruvate dioxygenase). Application of each herbicide was applied at 600, 1200, 1600, and 2000 grams per hectare equivalents. Results: Shown in FIGS. 1-12 (DAA—Herbicide—Sugar Cane Variety)

Compound	safening of sulfentrazone (both varieties of sugar cane, stem sections soaked in Formula A)	phytotoxicity level with sulfentrazone after Formula A treatment (percentage visual phytotoxicity, reduced from 80%, in certain instances)	safening of bicyclopyrone (stem sections soaked in Formula A, bicyclopyrone applied pre-emergent)	safening of clomazone (stem sections soaked in Formula A, clomazone applied pre-emergent)	safening effect as sugar cane propagation material applied safener (with all three herbicides (clomazone, sulfentrazone, bicyclopyrone), applied pre-emergent at 600-2000 g/ha, FIGS. 1-12, 28 and 35 DAA)	phytotoxicity level of sulfentrazone without Formula A safening (sugar cane, in vivo) [%]
CNC(=O)Nc1ccc(S(=O)(=O)NC(=O)c2ccccc2OC)cc1 [Formula A, 1-[4-(N-2-methoxybenzoylsulfamoyl)phenyl]-3-methylurea]	very effectively	zero	strong safening	strong safening	clear safening effect	
Cc1nn(-c2cc(NS(C)(=O)=O)c(Cl)cc2Cl)c(=O)n1C(F)F [sulfentrazone, reference compound]						80
